Like-named read-outs stand apart in the source and are kept apart here.
Tests used:
[1] = system: CB2 receptor; details: cited from earlier work
[2] = system: CB1 receptor; details: cited from earlier work
[3] = target: AmpC β-lactamase (Escherichia coli, UniProt P00811); test: AmpC colloidal aggregation counter screen; format: biochemical; details: low micromolar concentrations; with/without detergent
[4] = target: MOR (Homo sapiens, UniProt P35372); test: PDSP receptor profiling; format: binding
Chain of MOR (P35372 whole entry): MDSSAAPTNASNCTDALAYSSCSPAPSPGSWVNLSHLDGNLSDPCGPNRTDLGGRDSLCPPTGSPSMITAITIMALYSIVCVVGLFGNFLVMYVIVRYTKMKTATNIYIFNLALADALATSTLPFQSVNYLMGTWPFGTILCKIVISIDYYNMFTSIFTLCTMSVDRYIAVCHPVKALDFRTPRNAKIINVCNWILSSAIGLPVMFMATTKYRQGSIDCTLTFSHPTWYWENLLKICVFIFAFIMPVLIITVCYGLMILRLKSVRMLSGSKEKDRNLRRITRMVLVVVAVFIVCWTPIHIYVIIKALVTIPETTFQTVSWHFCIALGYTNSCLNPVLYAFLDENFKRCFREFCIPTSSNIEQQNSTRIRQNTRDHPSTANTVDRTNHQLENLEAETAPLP

[5] = Colloidal aggregate detection by dynamic light scattering; format: physicochemical; details: critical aggregation concentration can vary several-fold with conditions
[6] = target: KOR (Homo sapiens, UniProt P41145); test: PDSP receptor profiling; format: binding
Chain of KOR (P41145 whole entry): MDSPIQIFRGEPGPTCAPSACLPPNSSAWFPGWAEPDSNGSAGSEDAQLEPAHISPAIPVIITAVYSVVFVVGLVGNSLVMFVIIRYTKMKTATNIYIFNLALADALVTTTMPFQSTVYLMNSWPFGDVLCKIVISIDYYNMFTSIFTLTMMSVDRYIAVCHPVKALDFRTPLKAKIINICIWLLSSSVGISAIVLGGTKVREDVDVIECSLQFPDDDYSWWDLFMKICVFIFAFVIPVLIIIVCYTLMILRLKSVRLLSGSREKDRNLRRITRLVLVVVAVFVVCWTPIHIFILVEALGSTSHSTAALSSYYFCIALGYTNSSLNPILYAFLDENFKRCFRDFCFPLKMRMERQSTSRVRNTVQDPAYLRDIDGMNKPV

[7] = target: T1, ɑ2b (Homo sapiens, UniProt P18089); test: PDSP receptor profiling; format: binding
T1 sequence (P18089 1-450): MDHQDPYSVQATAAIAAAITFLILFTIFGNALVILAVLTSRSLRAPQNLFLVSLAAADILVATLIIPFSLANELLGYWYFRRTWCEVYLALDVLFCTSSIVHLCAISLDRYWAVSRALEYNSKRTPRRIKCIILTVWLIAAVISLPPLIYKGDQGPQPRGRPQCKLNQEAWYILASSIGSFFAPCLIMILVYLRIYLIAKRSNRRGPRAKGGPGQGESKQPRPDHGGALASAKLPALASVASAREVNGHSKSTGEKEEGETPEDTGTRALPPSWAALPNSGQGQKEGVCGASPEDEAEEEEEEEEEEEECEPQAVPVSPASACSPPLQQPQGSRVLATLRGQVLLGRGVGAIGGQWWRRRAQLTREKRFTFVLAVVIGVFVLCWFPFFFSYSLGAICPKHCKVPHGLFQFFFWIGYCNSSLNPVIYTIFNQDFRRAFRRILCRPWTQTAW

[8] = target: D1 (Homo sapiens, UniProt P21728); test: PDSP receptor profiling; format: binding
Chain of D1 (P21728 whole entry): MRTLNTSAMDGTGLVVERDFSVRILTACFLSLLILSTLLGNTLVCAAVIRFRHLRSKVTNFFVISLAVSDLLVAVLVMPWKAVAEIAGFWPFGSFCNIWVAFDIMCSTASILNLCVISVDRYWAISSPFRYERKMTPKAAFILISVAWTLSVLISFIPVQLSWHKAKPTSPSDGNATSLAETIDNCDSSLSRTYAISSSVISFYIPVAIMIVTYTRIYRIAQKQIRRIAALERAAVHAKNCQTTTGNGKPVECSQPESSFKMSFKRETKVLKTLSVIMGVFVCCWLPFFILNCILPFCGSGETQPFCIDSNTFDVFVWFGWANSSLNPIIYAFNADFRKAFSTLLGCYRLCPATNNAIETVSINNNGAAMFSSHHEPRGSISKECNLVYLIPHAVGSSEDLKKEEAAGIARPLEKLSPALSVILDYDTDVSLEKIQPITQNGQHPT

[9] = target: H3 (Homo sapiens, UniProt Q9Y5N1); test: PDSP receptor profiling; format: binding
Chain of H3 (Q9Y5N1 whole entry): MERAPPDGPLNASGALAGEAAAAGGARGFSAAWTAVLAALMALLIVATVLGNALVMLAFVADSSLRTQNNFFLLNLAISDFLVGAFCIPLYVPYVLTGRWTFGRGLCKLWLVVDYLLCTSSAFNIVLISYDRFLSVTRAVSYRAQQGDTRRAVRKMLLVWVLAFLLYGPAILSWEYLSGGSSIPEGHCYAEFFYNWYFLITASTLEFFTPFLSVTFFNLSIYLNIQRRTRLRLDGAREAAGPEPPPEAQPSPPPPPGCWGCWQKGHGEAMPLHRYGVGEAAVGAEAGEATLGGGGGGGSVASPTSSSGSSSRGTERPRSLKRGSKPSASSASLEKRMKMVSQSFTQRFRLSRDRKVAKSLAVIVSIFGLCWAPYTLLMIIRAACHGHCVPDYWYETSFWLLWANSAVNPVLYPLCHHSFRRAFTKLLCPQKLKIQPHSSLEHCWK

[10] = system: ion channels; details: membrane pressure and direct binding; cited from earlier work
[11] = target: T2, ɑ2C (Homo sapiens, UniProt P18825); test: PDSP receptor profiling; format: binding
T2 sequence (P18825 1-462): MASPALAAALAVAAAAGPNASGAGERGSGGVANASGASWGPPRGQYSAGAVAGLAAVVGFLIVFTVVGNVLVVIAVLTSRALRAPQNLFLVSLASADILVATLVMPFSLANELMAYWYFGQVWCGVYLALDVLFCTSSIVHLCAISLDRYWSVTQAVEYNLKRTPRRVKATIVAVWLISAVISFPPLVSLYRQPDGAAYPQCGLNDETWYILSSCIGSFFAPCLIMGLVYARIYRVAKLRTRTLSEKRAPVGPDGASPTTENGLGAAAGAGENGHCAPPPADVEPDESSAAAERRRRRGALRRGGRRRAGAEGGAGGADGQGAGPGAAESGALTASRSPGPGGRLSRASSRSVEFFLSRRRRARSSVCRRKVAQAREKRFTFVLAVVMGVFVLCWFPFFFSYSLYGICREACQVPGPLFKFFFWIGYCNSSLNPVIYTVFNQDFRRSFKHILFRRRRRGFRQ

[12] = system: malate dehydrogenase (MDH); test: MDH orthogonal aggregation counter screen; format: biochemical; details: 33 or 100 μM; presence or absence of 0.01% Triton X-100
[13] = room temperature; air oxidation to cannabidiol hydroxyquinone; cited from earlier work
[14] = target: DOR (Homo sapiens, UniProt P41143); test: PDSP receptor profiling; format: binding
Chain of DOR (P41143 whole entry): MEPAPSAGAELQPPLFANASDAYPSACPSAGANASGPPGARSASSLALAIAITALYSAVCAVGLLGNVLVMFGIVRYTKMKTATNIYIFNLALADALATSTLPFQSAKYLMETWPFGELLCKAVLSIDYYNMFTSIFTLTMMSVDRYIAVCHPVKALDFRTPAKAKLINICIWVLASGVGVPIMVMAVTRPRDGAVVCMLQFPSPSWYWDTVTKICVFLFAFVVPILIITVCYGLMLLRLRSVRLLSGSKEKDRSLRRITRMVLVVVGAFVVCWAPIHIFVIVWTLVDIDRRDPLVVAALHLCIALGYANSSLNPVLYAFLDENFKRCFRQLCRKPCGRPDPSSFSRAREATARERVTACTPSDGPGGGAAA

[15] = target: T3, 5-HT2C (Homo sapiens, UniProt P28335); test: PDSP receptor profiling; format: binding
T3 sequence (P28335 33-458): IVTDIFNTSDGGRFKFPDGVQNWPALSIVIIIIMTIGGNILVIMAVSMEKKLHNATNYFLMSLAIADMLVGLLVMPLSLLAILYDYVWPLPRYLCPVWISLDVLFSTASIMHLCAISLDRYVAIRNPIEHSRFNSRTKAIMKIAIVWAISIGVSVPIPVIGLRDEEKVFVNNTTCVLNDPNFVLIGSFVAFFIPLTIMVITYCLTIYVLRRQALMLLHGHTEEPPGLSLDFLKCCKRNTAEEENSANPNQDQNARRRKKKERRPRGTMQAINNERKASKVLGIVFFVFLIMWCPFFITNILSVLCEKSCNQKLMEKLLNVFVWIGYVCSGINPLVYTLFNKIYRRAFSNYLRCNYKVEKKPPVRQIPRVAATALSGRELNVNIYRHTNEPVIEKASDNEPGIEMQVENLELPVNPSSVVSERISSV

[16] = cited from earlier work
[17] = target: T4, σ2 (Rattus norvegicus, UniProt Q5U3Y7); test: PDSP receptor profiling; format: binding
T4 sequence (Q5U3Y7 1-176): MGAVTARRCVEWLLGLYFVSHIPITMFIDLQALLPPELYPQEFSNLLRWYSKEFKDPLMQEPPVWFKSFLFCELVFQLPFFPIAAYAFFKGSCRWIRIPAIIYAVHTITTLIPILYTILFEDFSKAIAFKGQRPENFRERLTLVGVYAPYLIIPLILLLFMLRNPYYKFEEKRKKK

[18] = target: 5-HT1A receptor; details: displacement of agonist [3H]-8-OH-DPAT; cited from earlier work
[19] = cited from earlier work; for apparent plasma clearance (CL'): oromucosal spray
[20] = patients with schizophrenia, 800 mg/day, not placebo-controlled; cited from earlier work
[21] = system: mice; details: oral single 246–2460 mg/kg or 61.5–615 mg/kg for 10 days; cited from earlier work

Chain of AmpC β-lactamase (P00811 20-377): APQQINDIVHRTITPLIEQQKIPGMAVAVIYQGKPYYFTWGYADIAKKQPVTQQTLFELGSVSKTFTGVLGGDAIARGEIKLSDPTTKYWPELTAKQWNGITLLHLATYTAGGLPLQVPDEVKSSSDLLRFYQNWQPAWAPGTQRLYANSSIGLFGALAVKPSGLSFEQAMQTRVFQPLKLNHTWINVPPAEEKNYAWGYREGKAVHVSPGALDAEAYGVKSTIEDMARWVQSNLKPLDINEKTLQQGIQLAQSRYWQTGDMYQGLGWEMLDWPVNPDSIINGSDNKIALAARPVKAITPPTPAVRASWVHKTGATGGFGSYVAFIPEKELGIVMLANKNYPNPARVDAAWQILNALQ

C=C(C)[C@H]1CCC(C)=C[C@@H]1c1c(O)cc(CCCCC)cc1O [(+)-CBD]
CB2 receptor affinity [1]: below 1 μM
CB1 receptor affinity [2]: below 1 μM

C=C(C)[C@@H]1CCC(C)=C[C@H]1c1c(O)cc(CCCCC)cc1O [CBD, Cannabidiol]
inhibition of AmpC β-lactamase [3]: detergent-sensitive inhibition
inhibition at 10 µM [4]: > 50%
concentration at which detectable colloidal aggregates form (DLS) [5]: approximately 12.5 μM
inhibition at 10 µM [6]: > 50%
inhibition at 10 µM [7]: > 50%
inhibition at 10 µM [8]: > 50%
inhibition at 10 µM [9]: > 50%
concentration at which CBD promiscuously affects ion channels [10]: 0.1 to 5 µM
inhibition at 10 µM [11]: > 50%
inhibition of malate dehydrogenase (MDH) [12]: detergent-sensitive inhibition
chemical stability [13]: chemically unstable
inhibition at 10 µM [14]: > 50%
inhibition at 10 µM [15]: > 50%
concentration at which CBD promotes DDI and potentiates the action of many drugs [16]: 5 to 10 µM
Ki [17]: > 1 µM
inhibition at 10 µM [17]: > 50%
EC50 [18]: 8 to 16 µM
plasma concentration ([19]; humans, single dose of an oral preparation containing 100 mg of CBD): 36 ng/mL and approximately 100 nM
volume of distribution ([19]; oromucosal spray formulations): 26,000–31,000 L
apparent plasma clearance (CL') ([19]; doses 5–20 mg): 2,500–4,700 L/h
apparent plasma clearance (CL') ([19]; fed state): 533 L/h
change in PANSS scores [20]: clinically-significant reduction
number of genes altered in gene expression arrays [21]: > 50 genes

CCCCCc1cc(O)c([C@@H]2C=C(C)CC[C@H]2C(C)C)c(O)c1 [H2-CBD]
affinity for the CB1 receptor [2]: moderate affinity

From paper PMC7666069 (Journal of medicinal chemistry, 2020)
